# In the Kinase Knowledgebase extract (Sharma et al. 2016):
# Target: EGFR (UniProt P00533)
# Sequence (P00533 whole entry, looked up): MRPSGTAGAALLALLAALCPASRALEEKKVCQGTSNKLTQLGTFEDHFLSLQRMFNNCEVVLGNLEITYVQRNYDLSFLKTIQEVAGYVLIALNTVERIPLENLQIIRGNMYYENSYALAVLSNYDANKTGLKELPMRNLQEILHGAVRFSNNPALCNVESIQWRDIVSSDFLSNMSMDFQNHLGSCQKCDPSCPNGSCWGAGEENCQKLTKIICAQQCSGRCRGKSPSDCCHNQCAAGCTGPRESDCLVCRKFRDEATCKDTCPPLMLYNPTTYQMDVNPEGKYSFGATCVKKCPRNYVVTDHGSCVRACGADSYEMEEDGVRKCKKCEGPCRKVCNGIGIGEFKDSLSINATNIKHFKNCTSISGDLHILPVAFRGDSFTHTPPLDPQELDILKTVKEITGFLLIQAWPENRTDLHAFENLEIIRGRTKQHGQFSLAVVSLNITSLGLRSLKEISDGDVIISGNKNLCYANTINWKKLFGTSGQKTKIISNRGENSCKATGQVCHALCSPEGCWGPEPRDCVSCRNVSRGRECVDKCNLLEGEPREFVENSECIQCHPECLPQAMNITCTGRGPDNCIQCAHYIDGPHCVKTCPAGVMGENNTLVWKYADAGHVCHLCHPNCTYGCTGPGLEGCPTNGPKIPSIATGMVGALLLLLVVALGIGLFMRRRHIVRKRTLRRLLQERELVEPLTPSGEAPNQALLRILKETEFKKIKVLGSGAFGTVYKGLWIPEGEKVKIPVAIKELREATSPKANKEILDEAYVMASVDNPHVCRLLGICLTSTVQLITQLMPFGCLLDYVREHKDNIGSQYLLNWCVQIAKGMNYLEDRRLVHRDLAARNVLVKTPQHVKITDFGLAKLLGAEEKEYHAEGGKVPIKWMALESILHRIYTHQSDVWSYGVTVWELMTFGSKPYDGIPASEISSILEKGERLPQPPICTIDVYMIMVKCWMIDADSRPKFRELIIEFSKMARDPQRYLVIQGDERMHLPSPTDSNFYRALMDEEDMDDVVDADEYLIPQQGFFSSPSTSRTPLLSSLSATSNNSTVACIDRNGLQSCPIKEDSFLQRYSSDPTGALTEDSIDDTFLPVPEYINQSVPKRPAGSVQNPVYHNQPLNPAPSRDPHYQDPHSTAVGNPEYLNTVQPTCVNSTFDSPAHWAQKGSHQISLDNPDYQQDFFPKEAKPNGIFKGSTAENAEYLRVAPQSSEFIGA
row,IC50 [µg/mL],SMILES
1,< 0.4,Cc1cccc(Nc2ncnc(Nc3ccc(O)cc3)n2)c1
2,> 4.5,COc1cc(Nc2ncnc(Nc3nccs3)n2)cc(OC)c1OC
3,> 4.5,COc1ccc(CNc2ncnc(Nc3cc(OC)c(OC)c(OC)c3)n2)cc1
4,> 4.5,COc1ccc(Nc2ncnc(Nc3ccc(N(C)C)cc3)n2)cc1OC
5,< 0.4,COc1ccc(Nc2ncnc(N(C)c3cccc(Cl)c3)n2)cc1
6,> 4.5,COc1cc(Nc2ncnc(NC(=O)Nc3ccccc3)n2)cc(OC)c1OC
7,0.4 to 2.4,COc1ccc(Nc2ncnc(N(C)CCc3ccccn3)n2)cc1OC

# Second part, the compound before the results:
row,SMILES,IC50 [µg/mL]
1,COc1cc(Nc2ncnc(-n3c(NCc4ccccn4)nc4ccccc43)n2)cc(OC)c1OCCN1CCOCC1,> 4.5
2,COc1cc(Nc2ncnc(NC3CC3c3ccccc3)n2)cc(OC)c1OC (stereo not given),< 0.4
3,Cc1ccc2c(c1)CCCN2c1ncnc(NCCc2cccnc2)n1,> 4.5
4,CNc1nc2ccccc2n1-c1ncnc(Nc2cc(OC)c(OC)c(OC)c2)n1,> 4.5
5,COc1cc(Nc2ncnc(-n3ccc4cc(O)ccc43)n2)cc(OC)c1OC,> 4.5
6,CN(c1ccc(F)c(Cl)c1)c1ncnc(Nc2cccc(Br)c2)n1,> 4.5
7,O=c1[nH]c2ccccc2n1-c1ncnc(Nc2cccc(S(=O)(=O)CCO)c2)n1,> 4.5
8,c1ccc(CNc2ncnc(Nc3cc(-c4ccco4)n[nH]3)n2)nc1,0.4 to 2.4
9,COc1cc(Nc2ncnc(-n3c(=O)sc4ccccc43)n2)cc(OC)c1OC,> 4.5
10,COc1cc(Nc2ncnc(N3c4ccccc4CCC3C)n2)cc(OC)c1OC (stereo not given),0.4 to 2.4
11,O=c1[nH]c2ccccc2n1-c1ncnc(Nc2ccc(OC(F)(F)F)cc2)n1,> 4.5
12,CCN(CC)CCOc1ccc(Nc2ncnc(-n3c(N)nc4ccccc43)n2)cc1OC,> 4.5
13,O=c1[nH]c2ccccc2n1-c1ncnc(Nc2cc(Cl)cc(Cl)c2)n1,> 4.5
